According to US12570609B2, “Tricyclic sulfones as ROR gamma modulators” (BRISTOL-MYERS SQUIBB COMPANY, priority 2020, dated 2026):

Assays:
Assay type in all cases: cell-based
[1] = target: T1, human sodium channel gene SCN5A ion channel (Homo sapiens, UniProt Q14524); assay: Patch clamp assay for sodium channel recording; settings: HEK 293 cells expressing SCN5A
T1 construct: expressed in transfected cells
Excerpt: All results are reported as mean±SEM. DMSO was used as a vehicle, with the final concentration of DMSO not exceeding 0.1%.
Membrane current recordings were made with a Multiclamp 700 series integrating patch-clamp amplifier (Axon Instruments, Foster City, California) using the whole-cell variant of the conventional patch-clamp technique. Cells expressing sodium SCN5A ion channels were placed in a plexiglass bath chamber, mounted on the stage of an inverted microscope, and perfused continuously with bath solution.
The sodium current bath solution, contained (in mM): 140 NaCl, 4 KCl, 1.8 CaCl2, 1 MgCl2, 10 glucose, 10 HEPES (pH 7.4, NaOH). […]
For determining steady state inhibition, sodium currents were elicited every 5 seconds (0.2 Hz) using the following voltage protocol. […] The peak sodium current in response to the depolarizing step to −20 mV was monitored in the control buffer and after application of test article until a new steady state in the presence of the test article was achieved. […] Rate dependent inhibition was calculated by comparing the average of the last 3 sweeps of 30 voltage sweeps in presence of test article to the average of the last 3 sweeps of 30 voltage sweeps under control conditions at each frequency tested.
Currents were sampled at rates at least 2 times the low pass filter rate. […] All currents were recorded at room temperature ˜25° C.

IL17A = assay: Human whole blood assay (IL17A content, AlphaLISA); settings: compared with Compound A
Experimental: The compounds were diluted in dimethyl sulfoxide (DMSO) and were transferred to individual wells of a Matrix Technologies clear, V-bottom 384-well plate using the ECHO acoustic liquid handling technology (60 nL per well). Human whole blood samples (30 μL) were added to each well using a CyBio FeliX liquid handling instrument and the plate was shaken on a plate shaker for 3 min, incubating at 37° C. for 1 h. Wells were then treated with CD3+CD28 with a final concentration of 1 μg/mL, 30 μL per well in an AIM-V medium, the plate was shaken on a plate shaker for 3 min before incubating the reaction mixtures at 37° C. for 20 h. Plasma was liberated from each sample by centrifugation (450 g, 5 min, ambient temperature).

RORγ = target: T2, RORγ (Homo sapiens, UniProt P51449); assay: RORγ Gal4 reporter assay (Gal4-luciferase, Jurkat cells); settings: Jurkat cells over-expressing RORγ, overnight incubation
T2 construct: Jurkat pEx/Gal/hRORγCLBD/HYG pG5luc/blast; expressed in transfected cells
T2 sequence (P51449 269-508 limits assumed): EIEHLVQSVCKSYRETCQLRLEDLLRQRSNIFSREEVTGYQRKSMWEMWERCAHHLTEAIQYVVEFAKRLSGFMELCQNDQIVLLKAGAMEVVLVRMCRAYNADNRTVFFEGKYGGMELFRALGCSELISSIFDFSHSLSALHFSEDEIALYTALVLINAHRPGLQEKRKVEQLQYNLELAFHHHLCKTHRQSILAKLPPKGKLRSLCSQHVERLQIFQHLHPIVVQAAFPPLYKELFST
Experimental: General RORγ Gal4 Reporter Assay
Inverse agonist activity of potential ligands to RORγ was measured by inhibition of luminescence in a Gal4-luciferase reporter assay in Jurkat cells.
The following day, cells were lysed with 10 μL of Steady-Glo Luciferase Assay System (Promega Cat. No. EZ550), and analyzed immediately. IC50 values were determined.

T1 sequence (Q14524 whole entry): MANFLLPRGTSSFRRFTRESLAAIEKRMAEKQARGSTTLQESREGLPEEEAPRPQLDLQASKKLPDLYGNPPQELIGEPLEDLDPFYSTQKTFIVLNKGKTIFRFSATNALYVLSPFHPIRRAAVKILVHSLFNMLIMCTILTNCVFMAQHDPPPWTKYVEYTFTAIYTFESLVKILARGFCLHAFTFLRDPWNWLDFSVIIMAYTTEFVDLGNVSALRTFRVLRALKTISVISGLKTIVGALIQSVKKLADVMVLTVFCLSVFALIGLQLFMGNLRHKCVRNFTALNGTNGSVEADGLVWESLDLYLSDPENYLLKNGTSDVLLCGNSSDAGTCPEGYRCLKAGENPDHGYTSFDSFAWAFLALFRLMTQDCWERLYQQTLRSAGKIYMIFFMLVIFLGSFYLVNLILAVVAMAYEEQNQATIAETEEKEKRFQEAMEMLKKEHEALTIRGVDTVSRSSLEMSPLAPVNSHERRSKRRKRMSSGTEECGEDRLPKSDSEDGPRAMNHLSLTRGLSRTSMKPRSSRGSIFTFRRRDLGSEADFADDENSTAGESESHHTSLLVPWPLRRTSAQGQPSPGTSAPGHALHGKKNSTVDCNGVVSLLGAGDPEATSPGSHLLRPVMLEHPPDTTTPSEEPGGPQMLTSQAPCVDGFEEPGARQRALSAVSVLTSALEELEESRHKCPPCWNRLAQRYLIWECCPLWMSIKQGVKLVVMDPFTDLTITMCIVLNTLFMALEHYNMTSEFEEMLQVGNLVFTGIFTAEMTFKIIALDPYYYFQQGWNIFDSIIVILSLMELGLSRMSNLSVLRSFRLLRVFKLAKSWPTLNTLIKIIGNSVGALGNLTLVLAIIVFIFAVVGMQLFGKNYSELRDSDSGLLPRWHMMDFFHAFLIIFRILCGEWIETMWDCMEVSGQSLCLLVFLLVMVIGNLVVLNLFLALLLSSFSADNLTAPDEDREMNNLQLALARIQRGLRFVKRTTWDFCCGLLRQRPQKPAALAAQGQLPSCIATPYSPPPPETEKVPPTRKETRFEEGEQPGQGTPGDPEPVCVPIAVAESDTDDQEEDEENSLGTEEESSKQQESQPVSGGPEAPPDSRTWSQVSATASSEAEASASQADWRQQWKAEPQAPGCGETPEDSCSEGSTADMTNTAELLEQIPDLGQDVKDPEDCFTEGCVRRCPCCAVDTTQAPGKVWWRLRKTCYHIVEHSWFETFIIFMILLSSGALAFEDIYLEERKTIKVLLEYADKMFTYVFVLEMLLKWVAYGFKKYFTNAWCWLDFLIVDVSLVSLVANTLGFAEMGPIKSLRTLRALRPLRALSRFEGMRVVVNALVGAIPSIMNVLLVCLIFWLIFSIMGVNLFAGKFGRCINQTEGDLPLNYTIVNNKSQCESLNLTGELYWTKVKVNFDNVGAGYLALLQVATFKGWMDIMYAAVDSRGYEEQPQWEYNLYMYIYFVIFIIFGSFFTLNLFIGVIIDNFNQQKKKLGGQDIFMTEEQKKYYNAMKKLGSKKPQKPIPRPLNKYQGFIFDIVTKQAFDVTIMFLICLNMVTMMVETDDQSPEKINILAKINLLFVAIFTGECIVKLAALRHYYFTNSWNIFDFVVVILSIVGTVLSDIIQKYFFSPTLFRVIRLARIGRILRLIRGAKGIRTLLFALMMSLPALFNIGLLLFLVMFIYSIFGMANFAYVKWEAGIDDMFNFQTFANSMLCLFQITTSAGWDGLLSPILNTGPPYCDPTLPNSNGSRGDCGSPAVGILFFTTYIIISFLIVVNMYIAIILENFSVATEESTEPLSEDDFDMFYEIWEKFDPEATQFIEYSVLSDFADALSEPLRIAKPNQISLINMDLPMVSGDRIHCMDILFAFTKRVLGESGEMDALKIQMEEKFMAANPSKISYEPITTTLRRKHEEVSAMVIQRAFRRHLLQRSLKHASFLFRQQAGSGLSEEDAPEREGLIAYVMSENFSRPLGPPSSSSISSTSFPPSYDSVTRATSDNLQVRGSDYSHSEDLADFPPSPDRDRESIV

Row | Compound | IC50 (RORγ) [nM] | activity in the Na channel assay (in words) [1] | IC50 ([1]; whole-cell patch clamp, read-out: Na Channel) [nM] | potency in the human whole blood assay relative to Compound A (IL17A)
1 | C[C@@](O)(CS(C)(=O)=O)C(=O)N[C@@H]1CC[C@@]2(S(=O)(=O)c3ccc(F)cc3)c3ccc(C(F)(C(F)(F)F)C(F)(F)F)nc3CC[C@@H]12 [Example 1, (S)—N-((6aS,7R,9aS)-9a-((4-fluorophenyl)sulfonyl)-3-(perfluoropropan-2-yl)-6,6a,7,8,9,9a-hexahydro-5H-cyclopenta[f]quinolin-7-yl)-2-hydroxy-2-methyl-3-(methylsulfonyl)propanamide] | – | essentially inactive | > 30000 | twice as potent
2 | O=C(O)C1CC2(C1)CC(C(=O)N[C@@H]1CC[C@@]3(S(=O)(=O)c4ccc(F)cc4)c4ccc(C(F)(C(F)(F)F)C(F)(F)F)nc4CC[C@@H]13)C2 (stereo partly shown) [Example 6] | 7.9 | – | – | –

Continued, in another order:

Row | IC50 (RORγ) [nM] | Compound | activity in the Na channel assay (in words) [1] | IC50 ([1]; whole-cell patch clamp, read-out: Na Channel) [nM] | potency in the human whole blood assay relative to Compound A (IL17A)
3 | 6 | CC(C)(O)CC(=O)N[C@@H]1CC[C@@]2(S(=O)(=O)c3ccc(F)cc3)c3ccc(C(F)(C(F)(F)F)C(F)(F)F)nc3CC[C@@H]12 [Example 2] | – | – | –
4 | 8.4 | O=C(N[C@@H]1CC[C@@]2(S(=O)(=O)c3ccc(F)cc3)c3ccc(C(F)(C(F)(F)F)C(F)(F)F)nc3CC[C@@H]12)C1CCS(=O)(=O)CC1 [Example 3] | – | – | –
5 | 3.9 | CC(C)(O)C(=O)N[C@@H]1CC[C@@]2(S(=O)(=O)c3ccc(F)cc3)c3ccc(C(F)(C(F)(F)F)C(F)(F)F)nc3CC[C@@H]12 [Example 4] | – | – | –
